Each block holds one molecule with its values, some of them ahead of it.
Tests used:
[1] = target: T1, NADP-dependent secondary alcohol dehydrogenase (ADH-1) (Trichomonas vaginalis, UniProt A2DJ40); experiment: NADPH oxidation at […] nm, acetaldehyde reduction; format: biochemical
T1 sequence (A2DJ40 1-365): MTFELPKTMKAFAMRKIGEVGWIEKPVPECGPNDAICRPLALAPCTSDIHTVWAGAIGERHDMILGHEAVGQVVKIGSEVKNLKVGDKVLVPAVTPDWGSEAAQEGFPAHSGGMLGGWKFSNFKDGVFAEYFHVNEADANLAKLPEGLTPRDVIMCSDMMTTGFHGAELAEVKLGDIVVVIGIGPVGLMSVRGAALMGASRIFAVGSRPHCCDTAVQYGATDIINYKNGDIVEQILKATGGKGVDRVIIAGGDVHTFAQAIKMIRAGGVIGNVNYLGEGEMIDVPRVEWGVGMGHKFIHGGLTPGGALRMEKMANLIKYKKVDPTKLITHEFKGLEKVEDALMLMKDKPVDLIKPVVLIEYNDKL

[2] = target: T2, NADP-dependent secondary alcohol dehydrogenase (E. histolytica homologue of ADH-1) (Entamoeba histolytica, UniProt P35630); experiment: NADPH oxidation at […] nm in cell extract, acetaldehyde reduction; format: biochemical
T2 sequence (P35630 1-366): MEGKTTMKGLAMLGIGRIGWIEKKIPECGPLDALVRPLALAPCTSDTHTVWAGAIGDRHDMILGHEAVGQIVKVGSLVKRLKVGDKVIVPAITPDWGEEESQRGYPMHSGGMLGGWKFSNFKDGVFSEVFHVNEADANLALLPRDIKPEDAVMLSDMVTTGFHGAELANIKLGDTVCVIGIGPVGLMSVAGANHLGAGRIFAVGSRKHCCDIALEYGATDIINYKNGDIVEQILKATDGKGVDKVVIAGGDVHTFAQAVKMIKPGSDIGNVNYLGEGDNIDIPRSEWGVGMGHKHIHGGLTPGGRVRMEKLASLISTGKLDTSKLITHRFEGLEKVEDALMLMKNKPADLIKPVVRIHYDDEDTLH

purified protein [3] = substrate: CC(C)O; experiment: purified protein; settings: 1 mM NADP+, pH 6.75, 37 °C
purified protein [4] = substrate: NC(=O)c1ccc[n+]([C@@H]2O[C@H](COP(=O)(O)OP(=O)(O)OC[C@H]3O[C@@H](n4cnc5c(N)ncnc54)[C@H](OP(=O)(O)O)[C@@H]3O)[C@@H](O)[C@H]2O)c1; experiment: purified protein; settings: 100 mM 2-propanol, pH 6.75, 37 °C, varied: cofactor

IC50 [1]: 96 ± 11 mM
inhibition at 200000 µM ([2]; read-out: Inhibition 2-propanol ^b aldehyde reduction): 80 ± 11%
Molecule: CC(C)O [2-propanol]

IC50 [1]: 0.063 ± 0.017 mM
inhibition at 100 µM ([2]; read-out: Inhibition CoA ^c aldehyde reduction): 62 ± 22%
Molecule: CC(C)(COP(=O)(O)OP(=O)(O)OC[C@H]1O[C@@H](n2cnc3c(N)ncnc32)[C@H](O)[C@@H]1OP(=O)(O)O)[C@@H](O)C(=O)NCCC(=O)NCCS [coenzyme A]

B1: NADP-dependent secondary alcohol dehydrogenase (ADH-1) (Trichomonas vaginalis G3) (protein)
chain: T1 sequence (A2DJ40 1-365)
Km (purified protein [3]): 11.57 ± 1.25 mM
Km (purified protein [4]): 0.0412 ± 0.0044 mM
